{"source": "ChEMBL document CHEMBL5154823", "about": "“Amphiphilic cyclic peptide [W4KR5]-Antibiotics combinations as broad-spectrum antimicrobial agents” (Eur J Med Chem, 2022)", "key": {"[1]": {"assay": "Cytotoxicity against HEK293 cells assessed as effect on cell viability at 10 to 25 ug/ml incubated for 24 hrs by microplate reader analysis relative to control", "assay_type": "toxicity, cell-based", "conditions": "human, at 10 to 25 µg/mL, dose 10-25 µg/ml, read-out: Activity"}, "Cell membrane": {"tested_on": "Cell membrane", "assay": "Induction of membrane disruption in Pseudomonas aeruginosa ATCC BAA 1744 assessed as increase in PI positive cells at MIC incubated for 2 hrs by Propidium iodide staining based FACS cytometry analysis relative to control"}, "Escherichia coli [2]": {"tested_on": "Escherichia coli", "assay": "Antibacterial activity against Escherichia coli ATCC 25922 assessed as reduction in microbial growth incubated for 24 hrs by microbroth dilution method", "assay_type": "functional"}, "Klebsiella pneumoniae [3]": {"tested_on": "Klebsiella pneumoniae", "assay": "Antibacterial activity against Klebsiella pneumoniae ATCC BAA 1705 assessed as daptomycin MIC incubated for 24 hrs by microbroth dilution assay", "assay_type": "functional"}, "HEK293": {"tested_on": "HEK293", "assay": "Cytotoxicity against HEK293 cells assessed as effect on cell viability at 10 ug/ml incubated for 24 hrs by microplate reader analysis", "assay_type": "toxicity, cell-based", "conditions": "human, hek293, 24 h, dose 10 µg/ml"}, "Klebsiella pneumoniae [4]": {"tested_on": "Klebsiella pneumoniae", "assay": "Antibacterial activity against Klebsiella pneumoniae ATCC BAA 1705 assessed as clindamycin MIC incubated for 24 hrs by microbroth dilution assay", "assay_type": "functional"}, "Escherichia coli [5]": {"tested_on": "Escherichia coli", "assay": "Synergistic antibacterial activity against Escherichia coli ATCC 25922 assessed as fractional inhibitory concentration index incubated for 24 hrs in presence of meropenem by checkerboard assay", "assay_type": "functional"}, "Staphylococcus aureus": {"tested_on": "Staphylococcus aureus", "assay": "Antibacterial activity against Staphylococcus aureus ATCC 29213 assessed as reduction in microbial growth incubated for 24 hrs by microbroth dilution method", "assay_type": "functional"}, "Klebsiella pneumoniae [6]": {"tested_on": "Klebsiella pneumoniae", "assay": "Antibacterial activity against Klebsiella pneumoniae ATCC BAA 1705 assessed as polymyxin B MIC incubated for 24 hrs by microbroth dilution assay", "assay_type": "functional"}}, "note": "Where a SMILES comes first, the peptide text is derived from it."}
{"smiles": "N=C(N)NCCC[C@@H]1NC(=O)[C@H](CCCNC(=N)N)NC(=O)[C@H](CCCNC(=N)N)NC(=O)[C@H](CCCNC(=N)N)NC(=O)[C@H](Cc2c[nH]c3ccccc23)NC(=O)[C@H](Cc2c[nH]c3ccccc23)NC(=O)[C@H](Cc2c[nH]c3ccccc23)NC(=O)[C@H](Cc2c[nH]c3ccccc23)NC(=O)[C@H](CCCCN)NC(=O)[C@H](CCCNC(=N)N)NC1=O", "note": "(cyclo(KWWWWRRRRR))", "values": [{"measurement": "viability at 24 h", "setting": "[1]", "result": 86, "unit": "%"}, {"measurement": "Activity", "setting": "Cell membrane", "result": 39.9, "unit": "%"}, {"measurement": "MIC", "setting": "Escherichia coli [2]", "result": 16, "unit": "µg/mL"}, {"measurement": "MIC", "setting": "Klebsiella pneumoniae [3]", "result": 16, "unit": "µg/mL"}, {"measurement": "Activity", "setting": "HEK293", "result": "Non-Toxic"}, {"measurement": "MIC", "setting": "Klebsiella pneumoniae [4]", "result": 2, "unit": "µg/mL"}, {"measurement": "fractional inhibitory concentration index (FICI)", "setting": "Escherichia coli [5]", "result": 1.25}, {"measurement": "MIC", "setting": "Staphylococcus aureus", "result": 4, "unit": "µg/mL"}, {"measurement": "MIC", "setting": "Klebsiella pneumoniae [6]", "result": 0.063, "unit": "µg/mL"}]}
